Assay [1] can be described thus: Inhibition of NDM-1 (unknown origin) using imipenem as substrate by spectrophotometric analysis.
A short description of assay [2]: Inhibition of NDM-1 (unknown origin) using imipenem as substrate at 1 mM by spectrophotometric analysis.
A short description of assay [3]: Inhibition of NDM-1 (unknown origin).

From ChEMBL document CHEMBL3097994, “Simplified captopril analogues as NDM-1 inhibitors” (Bioorg Med Chem Lett, 2014) come the findings set out here.

Activity calls are given as the source filed them. The rule behind the calls is not given here. Some results are limits rather than exact numbers.

For `CC(CS)C(=O)Nc1ncc[nH]1` (stereo not drawn), the IC50 in assay [1] is > 200 µM. Consider `CC(CS)C(=O)Nc1cccc(F)c1` (stereo not drawn), for which, in assay [1], the half-maximal inhibitory concentration (IC50) was > 200 µM.

For `CON(C)C(=O)[C@H](C)CS`, the IC50 in assay [1] turned out to be 20 µM. Same read-out and setting: then `CON(C)C(=O)[C@@H](C)CS`, with 48 µM; and `COc1ccc(CONC(=O)C(C)CS)cc1` (stereo not drawn), with > 200 µM.

In turn, `C[C@H](CS)C(=O)NCc1ccccc1O` came in with a half-inhibitory concentration (IC50) in assay [1] of 5 µM. Same read-out and setting: then `CC(CS)C(=O)Nc1nccs1` (stereo not drawn), with > 200 µM. Consider `CNc1ccccc1NC(=O)C(C)CS` (stereo not drawn), for which the inhibition entry in assay [2] was “inactive”. On the same count and under the same terms, next, `CC(CS)C(=O)N1CCOCC1` (stereo not drawn): “inactive”. As for `C[C@H](CS)C(=O)N1CCC[C@H]1C(=O)O` [CAPTOPRIL], it took 39 µM to reach half-maximal inhibition in assay [3] (IC50). In the case of `CC(CS)C(=O)NCc1ccc(F)cc1` (stereo not drawn), the IC50 in assay [1] is > 200 µM. The same measure, in the same setting: next, `CONC(=O)[C@H](C)CS`: 55 µM; `CC(CS)C(=O)O` (racemic): 56 µM. Same read-out and setting: then `C[C@@H](CS)C(=O)NCc1ccccc1`, with 1.5 µM; and `Cc1coc(NC(=O)C(C)CS)n1` (stereo not drawn), with 21 µM; and `CC(CO)CS` (stereo not drawn), with 15 µM. Still for that read-out and setting: next, `OCC(S)CS` (stereo not drawn) [DIMERCAPROL]: 10.4 µM; `CSCCNC(=O)[C@H](C)CS`: 13 µM. On to `C[C@H](CS)C(=O)O`, for which the 50% inhibitory concentration (IC50) in assay [1] was found to be 81 µM.

On to `Cc1ccccc1CNC(=O)[C@H](C)CS`, for which the IC50 in assay [1] is > 200 µM. Still for that read-out and setting: then `CC(CS)C(=O)NCc1ccco1` (stereo not drawn), with > 200 µM; and `C[C@H](CS)C(=O)NCc1ccc(O)cc1`, with > 200 µM; and `CC(CS)C(=O)Nc1ccc(F)cc1` (stereo not drawn), with > 200 µM. As for `CC(CS)C(=O)NCCc1cccs1` (stereo not drawn), the IC50 in assay [1] is > 200 µM.

In turn, `CCCCNC(=O)C(C)CS` (stereo not drawn) yielded a half-maximal inhibitory concentration (IC50) in assay [1] of 20 µM. The same measure, in the same setting: next, `C[C@H](CS)C(=O)NCc1ccccc1`: 5 µM. Still for that read-out and setting: then `CC(CS)C(=O)Nc1ncc(Br)s1` (stereo not drawn), with 52 µM; and `C[C@H](CS)C(=O)NCCS(C)(=O)=O`, with 120 µM. Take `C[C@@H](CS)C(=O)O`: in assay [1], the IC50 was 53 µM.

For the compound `COC(=O)C(C)CS` (stereo not drawn), the inhibition result in assay [2] is “inactive”. As for `CC(CS)C(=O)NCCc1ccccc1` (stereo not drawn), the IC50 in assay [1] was > 200 µM. Same read-out and setting: next, `CC(CS)C(=O)Nc1ccccc1` (stereo not drawn): 135 µM; `CONC(=O)[C@@H](C)CS`: 92 µM.

The term IC50 denotes the point on the concentration scale where inhibition reaches its midpoint. Read a low IC50 as higher potency.
